Measurements: US7968577B2 (Bristol-Myers Squibb Company, priority 2006, dated 2011)

Test system: AP-1 induced transcriptional activity
Test: Cellular Transrepressional Assay: AP-1 luciferase reporter in PMA-activated A549 cells
Format: cell-based
Settings: Homo sapiens; for Emax: A549, 7 h, maximum inhibition, Cellular Transrepression Assay, read-out: AP-1 Max % inh (Cellular Transrepression Assay); for EC50: A549, Cellular Transrepression Assay
Protocol: Cellular Transrepressional Assay
To measure the ability of test molecules to inhibit AP-1 induced transcriptional activity we utilized an A549 cell which was stably transfected with a plasmid containing 7× AP-1 DNA binding sites (pAP-1-Luc plasmid, Stratagene Co. La Jolla, Calif.) followed by the gene for luciferase. Cells were activated with 10 ng/ml of […] (PMA) plus or minus test molecules for 7 hours. After 7 hours a luciferase reagent was added to measure luciferase enzymatic activity in the cell. After a 10 minute incubation of luciferase reagent with cells, luminescence was measured in a TopCount luminescence counter. Repression of AP-1 activity was calculated as the percentage decrease in the signal induced by PMA alone. Test molecules were analyzed in the concentration range from 0.1 nM to 40 μM. EC50s were determined by using standard curve fitting methods such as Excel fit (Microsoft Co.).

SMILES | EC50 [nM] | Emax [%]
COc1ccc(Cc2csc(NC(=O)C(C)(C)C(c3ccccc3)c3ccccc3)n2)cc1 [Example 297, 2,2-dimethyl-N-(4-((4-(methyloxy)phenyl)methyl)-1,3-thiazol-2-yl)-3,3-diphenylpropanamide] | 262 | 77.3
COc1cccc(C(c2ccccc2)C(C)(C)C(=O)Nc2ncc(C)s2)c1 (centres unmarked) [Example 93, 2,2-dimethyl-3-(3-(methyloxy)phenyl)-N-(5-methyl-1,3-thiazol-2-yl)-3-phenylpropanamide] | – | 28.1
CC(C)(C(=O)Nc1nc(Cc2ccc(-c3ccncc3)cc2)cs1)C(c1ccccc1)c1ccc(F)cc1 (centres unmarked) [Example 302, 3-(4-fluorophenyl)-2,2-dimethyl-3-phenyl-N-(4-((4-(4-pyridinyl)phenyl)methyl)-1,3-thiazol-2-yl)propanamide] | 33.3 | 76.8
CC(C)(C(=O)Nc1nccs1)[C@@H](c1ccccc1)c1ccc(O)c(C#N)c1 [Example 359, (3S)-3-(3-Cyano-4-hydroxyphenyl)-2,2-dimethyl-3-phenyl-N-1,3-thiazol-2-ylpropanamide] | 278 | 65.2
CC(C)(C(=O)Nc1nccs1)C(c1ccc(O)cc1)c1ccc(O)cc1 [Example 186, 3,3-bis(4-hydroxyphenyl)-2,2-dimethyl-N-1,3-thiazol-2-ylpropanamide] | – | 20.5
COc1cccc(C(c2ccccc2)C(C)(C)C(=O)Nc2nccs2)c1 (centres unmarked) [Example 91, 2,2-dimethyl-3-(3-(methyloxy)phenyl)-3-phenyl-N-1,3-thiazol-2-ylpropanamide] | – | 23.2
COc1ccc(C(c2ccccc2)C(C)(C)C(=O)Nc2ncc(C)s2)cc1 (centres unmarked) [Example 105, 2,2-dimethyl-3-(4-(methyloxy)phenyl)-N-(5-methyl-1,3-thiazol-2-yl)-3-phenylpropanamide] | – | 22.1
Cc1csc(NC(=O)C(C)(C)C(c2ccccc2)c2cccc(O)c2)n1 (centres unmarked) [Example 198, 3-(3-hydroxyphenyl)-2,2-dimethyl-N-(4-methyl-1,3-thiazol-2-yl)-3-phenylpropanamide] | – | 25.8
COCc1ccc(-c2ccc(C(c3ccccc3)C(C)(C)C(=O)Nc3nncs3)cc2)cc1 (centres unmarked) [Example 408, 3-(4′-(methoxymethyl)-4-biphenylyl)-2,2-dimethyl-3-phenyl-N-1,3,4-thiadiazol-2-ylpropanamide] | 39.8 | 24.9
CC(C)(C)c1ccc(C(c2ccccc2)C(C)(C)C(=O)Nc2nc(Cc3ccc(-c4ccncc4)cc3)cs2)cc1 (centres unmarked) [Example 303, 3-(4-(1,1-dimethylethyl)phenyl)-2,2-dimethyl-3-phenyl-N-(4-((4-(4-pyridinyl)phenyl)methyl)-1,3-thiazol-2-yl)propanamide] | 16.6 | 75.7
COc1ccc(C(c2ccccc2)C(C)(C)C(=O)Nc2nc(CCc3ccccc3)cs2)cc1 (centres unmarked) [Example 109, 2,2-dimethyl-3-(4-(methyloxy)phenyl)-3-phenyl-N-(4-(2-phenylethyl)-1,3-thiazol-2-yl)propanamide] | – | 22.6
COc1ccccc1C(c1ccccc1)C(C)(C)C(=O)Nc1nc(C)cs1 (centres unmarked) [Example 81, 2,2-dimethyl-3-(2-(methyloxy)phenyl)-N-(4-methyl-1,3-thiazol-2-yl)-3-phenylpropanamide] | – | 23.1
COc1ccc(C(c2ccccc2)C(C)(C)C(=O)Nc2nc(C)c(C)s2)cc1 (centres unmarked) [Example 106, N-(4,5-dimethyl-1,3-thiazol-2-yl)-2,2-dimethyl-3-(4-(methyloxy)phenyl)-3-phenylpropanamide] | – | 35.9
COc1ccc(C(c2ccccc2)C(C)(C)C(=O)Nc2nc(C)cs2)cc1 (centres unmarked) [Example 104, 2,2-dimethyl-3-(4-(methyloxy)phenyl)-N-(4-methyl-1,3-thiazol-2-yl)-3-phenylpropanamide] | – | 27.3
CC(C)Cc1ccc(-c2ccc(C(CC(C)C)C(C)(C)C(=O)Nc3nccs3)cc2)cc1 (centres unmarked) [Example 396, 2,2,5-trimethyl-3-(4′-(2-methylpropyl)-4-biphenylyl)-N-1,3-thiazol-2-ylhexanamide] | 227 | 31.5

Second part, led by results:

EC50 [nM] | SMILES | Emax [%]
736 | CC(C)(C(=O)Nc1nc(Cc2ccc(-c3ccncc3)cc2)cs1)C(c1ccc(O)cc1)c1ccc(O)cc1 [Example 356] | 61.1
3.63 | CC(C)(C(=O)Nc1nncs1)C(c1ccccc1)c1ccc(-c2ccc(C(=O)NC3CC3)cc2)cc1 (centres unmarked) [Example 425, N-cyclopropyl-4′-(2,2-dimethyl-3-oxo-1-phenyl-3-(1,3,4-thiadiazol-2-ylamino)propyl)-4-biphenylcarboxamide] | 28.7
9.65 | COc1ccc([C@@H](c2ccccc2)C(C)(C)C(=O)Nc2nc(Cc3ccc(-c4ccncc4)cc3)cs2)cc1 (stereo in doubt) [Example 290, 2,2-dimethyl-3-(4-(methyloxy)phenyl)-3-phenyl-N-(4-((4-(4-pyridinyl)phenyl)methyl)-1,3-thiazol-2-yl)propanamide] | 72.6
950 | COc1ccc2c(-c3csc(NC(=O)C(C)(C)C(c4ccccc4)c4ccccc4)n3)cccc2c1 [Example 166, 2,2-dimethyl-N-(4-(6-(methyloxy)-1-naphthalenyl)-1,3-thiazol-2-yl)-3,3-diphenylpropanamide] | 62.3
10.5 | CC(C)(C(=O)Nc1nccs1)[C@H](c1ccccc1)c1ccc(N2CCOCC2)cc1 (stereo in doubt) [Example 258, 2,2-dimethyl-3-(4-(4-morpholinyl)phenyl)-3-phenyl-N-1,3-thiazol-2-ylpropanamide] | 42.7
666 | Cc1ccc(C(c2ccc(N3CCOCC3)cc2)C(C)(C)C(=O)Nc2nccs2)cc1 (centres unmarked) [Example 227, 2,2-dimethyl-3-(4-methylphenyl)-3-(4-(4-morpholinyl)phenyl)-N-1,3-thiazol-2-ylpropanamide] | 43.7
30.5 | CC(C)(C(=O)Nc1nncs1)[C@@H](c1ccccc1)c1ccc(O)cc1 [Example 339, (3S)-3-(4-hydroxyphenyl)-2,2-dimethyl-3-phenyl-N-1,3,4-thiadiazol-2-ylpropanamide] | 60.8
118 | COc1ccc(Cc2csc(NC(=O)C(C)(C)C(c3ccccc3)c3ccc(O)cc3)n2)cc1 (centres unmarked) [Example 352] | 61.7
120 | CC(C)(C(=O)Nc1nncs1)C(c1ccccc1)c1ccc(O)c(F)c1 (centres unmarked) [Example 348, 3-(3-fluoro-4-hydroxyphenyl)-2,2-dimethyl-3-phenyl-N-1,3,4-thiadiazol-2-ylpropanamide] | 54
894 | COc1ccc(-c2ccc(C(c3ccccc3)C(C)(C)C(=O)Nc3nncs3)cc2)cc1 (centres unmarked) [Example 378, 2,2-dimethyl-3-(4′-(methyloxy)-4-biphenylyl)-3-phenyl-N-1,3,4-thiadiazol-2-ylpropanamide] | 26.2
161 | CC(C)(C(=O)Nc1nccs1)C(c1ccccc1)c1ccc(N2CCOCC2)cc1 (centres unmarked) [Example 224, 2,2-dimethyl-3-(4-(4-morpholinyl)phenyl)-3-phenyl-N-1,3-thiazol-2-ylpropanamide] | 33.8
13.3 | CC(=O)Oc1ccc([C@H](c2ccccc2)C(C)(C)C(=O)Nc2nccs2)cc1 [Example 361, 4-((1S)-2,2-dimethyl-3-oxo-1-phenyl-3-(1,3-thiazol-2-ylamino)propyl)phenyl acetate] | 36.4
9.57 | CC(C)(C(=O)Nc1nncs1)C(c1ccccc1)c1ccc(-c2ccc(-c3ccccc3)cc2)cc1 (centres unmarked) [Example 404, 2,2-dimethyl-3-phenyl-3-(1,1′:4′,1″- terphenyl-4-yl)-N-1,3,4-thiadiazol-2-ylpropanamide] | 21.9
53.9 | CC(C)(C(=O)Nc1nccs1)[C@@H](c1ccccc1)c1ccc(O)cc1 [Example 325, (3S)-3-(4-hydroxyphenyl)-2,2-dimethyl-3-phenyl-N-1,3-thiazol-2-ylpropanamide] | 57.8
267 | CC(C)CC(c1ccc(-c2ccc(OC(C)C)cc2)cc1)C(C)(C)C(=O)Nc1nccs1 (centres unmarked) [Example 400, 2,2,5-trimethyl-3-(4′-((1-methylethyl)oxy)-4-biphenylyl)-N-1,3-thiazol-2-ylhexanamide] | 46.1
13.3 | CC(C)(C(=O)Nc1nc(Cc2ccc(-c3ccncc3)cc2)cs1)C(c1ccccc1)c1ccccc1 [Example 299, 2,2-dimethyl-3,3-diphenyl-N-(4-((4-(4-pyridinyl)phenyl)methyl)-1,3-thiazol-2-yl)propanamide] | 69.3
24.6 | CC(C)(C(=O)Nc1nncs1)C(c1ccccc1)c1ccc(-c2ccc(OC(F)(F)F)cc2)cc1 (centres unmarked) [Example 405, 2,2-dimethyl-3-phenyl-N-1,3,4-thiadiazol-2-yl-3-(4′-(trifluoromethoxy)-4-biphenylyl)propanamide] | 35.2
9.97 | CC(C)(C(=O)Nc1nc(Cc2ccc(-c3ccncc3)cc2)cs1)C(c1ccccc1)c1ccc(Br)cc1 (centres unmarked) [Example 300, 3-(4-bromophenyl)-2,2-dimethyl-3-phenyl-N-(4-((4-(4-pyridinyl)phenyl)methyl)-1,3-thiazol-2-yl)propanamide] | 73.7
216 | COc1ccc(Cc2csc(NC(=O)C(C)(C)C(c3ccccc3)c3ccc(OC)cc3)n2)cc1 (centres unmarked) [Example 288, 2,2-dimethyl-3-(4-(methyloxy)phenyl)-N-(4-((4-(methyloxy)phenyl)methyl)-1,3-thiazol-2-yl)-3-phenylpropanamide] | 62.2
